Results as given in US8937068B2, “Pyridopyrazine derivatives and their use” (Zentaris GmbH, priority 2005, dated 2015).

Key:
p38alpha = p38alpha (Homo sapiens (Human), UniProt Q16539); test: Cell-free kinase assay (ALPHA technology), p38alpha; assay type: biochemical; conditions: 10 μM ATP
Procedure: (§1) The inhibitory effect of the compounds according to the invention was tested on various serine/threonine, tyrosine and lipid kinases in enzymatic assays. Recombinant human kinases such as, for example, Erk2, PI3Kalpha, -beta, -gamma, -delta, p38alpha, p38gamma, Jnk1, Jnk2 and others were used in this case, partly as full-length kinases, partly as shortened fragments, but at least consisting of the functional kinase domains. The commercial kinase proteins (Proqinase, Upstate) were used as recombinant fusion proteins with GST (glutathion-S-transferase) or His-Tag. Depending on the type of substrate, the various kinase reactions were quantified by means of suitable ALPHA™ beads (Perkin-Elmer).
(§2) The substance testing is described in detail hereinafter for the Erk assay.
(§3) a) MAPK-ALPHAs (e.g. Erk2): the test substance, 0.625 ng Erk2 (#14-173, Upstate), 10 μM ATP and 15 nM biotinylated MBP (myelin basic protein) substrate were incubated on a 384-well Optiplate (Perkin-Elmer) in a volume of 15 μl for 1 h in 25 mM Tris, 10 mM MgCl2, 0.1% Tween-20, 100 μM NaVO4, 2 mM DTT at pH 7.5. The kinase reaction was then stopped by adding 10 μl of the ALPHA bead mixes (10 μg/ml, #6760617/Perkin-Elmer) pre-incubated with anti-phospho MBP antibody (320 pM, #05-429/Upstate) in 25 mM Tris, 200 mM NaCl, 110 nM EDTA and 0.3% BSA and left to stand overnight. b) PI3K-ALPHAs (e.g. PI3Kalpha): the test substance, 1 ng PI3Kalpha (#14-602, Upstate), 100 μM ATP and 20 μM PIP2 substrate (#P4508, Echelon) were incubated on a 384-well Optiplate (Perkin-Elmer) for 1 h in 50 mM Hepes, 50 mM NaCl, 5 mM MgCl2, 0.05% Chaps, 5 mM DTT at pH 7.4. The kinase reaction was then stopped by adding ALPHA bead mixes (10 μg/ml, #6760603/Perkin-Elmer) pre-incubated with 1 nM GST:Grp1 fusion protein (Upstate) and 15 nM biotinylated PIP3 (#C-39B6/Echelon) in 50 mM Hepes, 50 mM NaCl, 50 mM EDTA and 0.1% BSA and left to stand overnight.
(§4) The fluorescence was detected the following morning in a Fusion™^aα-system (Perkin-Elmer).
(§5) The %-inhibition values per substance concentration were calculated by means of the following formula from the raw data determined in the Fusion™ ? :
(§6) Eight determinations were made for each control and two for the substance samples. The 0% control either contains no ATP or no substrate, the 100% control (fully active kinase) contains no test substance. The IC50 values were determined using GraphPadPrism.

Erk2 = Erk2 (Homo sapiens, UniProt P28482); test: Cell-free kinase assay (ALPHA technology), Erk2; assay type: biochemical; conditions: 10 μM ATP
Procedure: The inhibitory effect of the compounds according to the invention was tested on various serine/threonine, tyrosine and lipid kinases in enzymatic assays. […] The commercial kinase proteins (Proqinase, Upstate) were used as recombinant fusion proteins with GST (glutathion-S-transferase) or His-Tag. Depending on the type of substrate, the various kinase reactions were quantified by means of suitable ALPHA™ beads (Perkin-Elmer). The substance testing is described in detail hereinafter for the Erk assay. […] a) MAPK-ALPHAs (e.g. […] The kinase reaction was then stopped by adding ALPHA bead mixes (10 μg/ml, #6760603/Perkin-Elmer) pre-incubated with 1 nM GST:Grp1 fusion protein (Upstate) and 15 nM biotinylated PIP3 (#C-39B6/Echelon) in 50 mM Hepes, 50 mM NaCl, 50 mM EDTA and 0.1% BSA and left to stand overnight. The fluorescence was detected the following morning in a Fusion™^aα-system (Perkin-Elmer). […] Eight determinations were made for each control and two for the substance samples. […] The IC50 values were determined using GraphPadPrism.

PI3Kalpha = PI3Kalpha (Homo sapiens (Human), UniProt P42336); test: Cell-free kinase assay (ALPHA technology), PI3Kalpha; assay type: biochemical; conditions: 100 μM ATP
Procedure: as §1, §2, §3, §4, §5, §6

Jnk1 + Jnk2 = test: Cell-free kinase assay (ALPHA technology), Jnk1 + Jnk2; assay type: biochemical, human; conditions: 10 μM ATP
Procedure: as §1, §2, §3, §4, §5, §6

Sequence of p38alpha (Q16539 whole entry, the tested form may be a part): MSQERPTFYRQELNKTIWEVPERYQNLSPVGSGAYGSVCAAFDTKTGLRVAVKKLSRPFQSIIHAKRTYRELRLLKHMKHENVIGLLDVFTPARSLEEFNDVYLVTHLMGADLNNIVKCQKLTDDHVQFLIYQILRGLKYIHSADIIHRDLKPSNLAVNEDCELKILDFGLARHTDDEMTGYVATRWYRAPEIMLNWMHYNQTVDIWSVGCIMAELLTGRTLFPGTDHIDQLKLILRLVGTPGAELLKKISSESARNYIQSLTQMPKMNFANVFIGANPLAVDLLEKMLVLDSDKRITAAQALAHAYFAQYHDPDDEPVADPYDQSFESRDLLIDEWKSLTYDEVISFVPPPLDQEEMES
Sequence of PI3Kalpha (P42336 whole entry): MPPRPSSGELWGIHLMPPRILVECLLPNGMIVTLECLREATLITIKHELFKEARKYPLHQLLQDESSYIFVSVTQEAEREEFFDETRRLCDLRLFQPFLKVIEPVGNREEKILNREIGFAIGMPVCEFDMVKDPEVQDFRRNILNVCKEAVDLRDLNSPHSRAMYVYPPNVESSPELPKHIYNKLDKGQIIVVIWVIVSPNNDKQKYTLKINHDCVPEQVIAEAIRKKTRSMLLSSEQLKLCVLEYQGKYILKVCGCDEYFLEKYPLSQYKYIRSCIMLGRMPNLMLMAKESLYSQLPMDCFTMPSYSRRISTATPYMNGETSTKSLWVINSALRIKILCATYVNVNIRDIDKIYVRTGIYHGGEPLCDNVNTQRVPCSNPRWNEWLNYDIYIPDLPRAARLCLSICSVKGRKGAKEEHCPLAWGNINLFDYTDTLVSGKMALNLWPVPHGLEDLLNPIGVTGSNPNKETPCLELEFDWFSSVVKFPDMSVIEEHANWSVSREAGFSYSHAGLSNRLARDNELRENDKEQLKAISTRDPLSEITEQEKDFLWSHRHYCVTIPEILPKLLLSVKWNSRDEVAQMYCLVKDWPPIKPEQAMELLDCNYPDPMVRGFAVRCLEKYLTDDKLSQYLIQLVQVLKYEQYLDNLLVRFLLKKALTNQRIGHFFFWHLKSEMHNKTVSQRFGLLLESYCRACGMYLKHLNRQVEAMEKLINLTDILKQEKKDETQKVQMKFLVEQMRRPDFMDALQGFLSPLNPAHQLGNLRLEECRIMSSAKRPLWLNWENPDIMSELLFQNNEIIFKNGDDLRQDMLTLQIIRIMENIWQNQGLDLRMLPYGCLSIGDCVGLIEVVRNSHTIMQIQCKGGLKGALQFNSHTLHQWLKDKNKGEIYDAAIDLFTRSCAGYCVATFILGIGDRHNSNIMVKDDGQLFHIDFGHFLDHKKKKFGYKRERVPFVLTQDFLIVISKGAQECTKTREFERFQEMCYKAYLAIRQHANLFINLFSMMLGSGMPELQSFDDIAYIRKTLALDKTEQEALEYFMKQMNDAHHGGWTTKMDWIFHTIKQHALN
Sequence of PI3Kalpha (P27986 whole entry partner): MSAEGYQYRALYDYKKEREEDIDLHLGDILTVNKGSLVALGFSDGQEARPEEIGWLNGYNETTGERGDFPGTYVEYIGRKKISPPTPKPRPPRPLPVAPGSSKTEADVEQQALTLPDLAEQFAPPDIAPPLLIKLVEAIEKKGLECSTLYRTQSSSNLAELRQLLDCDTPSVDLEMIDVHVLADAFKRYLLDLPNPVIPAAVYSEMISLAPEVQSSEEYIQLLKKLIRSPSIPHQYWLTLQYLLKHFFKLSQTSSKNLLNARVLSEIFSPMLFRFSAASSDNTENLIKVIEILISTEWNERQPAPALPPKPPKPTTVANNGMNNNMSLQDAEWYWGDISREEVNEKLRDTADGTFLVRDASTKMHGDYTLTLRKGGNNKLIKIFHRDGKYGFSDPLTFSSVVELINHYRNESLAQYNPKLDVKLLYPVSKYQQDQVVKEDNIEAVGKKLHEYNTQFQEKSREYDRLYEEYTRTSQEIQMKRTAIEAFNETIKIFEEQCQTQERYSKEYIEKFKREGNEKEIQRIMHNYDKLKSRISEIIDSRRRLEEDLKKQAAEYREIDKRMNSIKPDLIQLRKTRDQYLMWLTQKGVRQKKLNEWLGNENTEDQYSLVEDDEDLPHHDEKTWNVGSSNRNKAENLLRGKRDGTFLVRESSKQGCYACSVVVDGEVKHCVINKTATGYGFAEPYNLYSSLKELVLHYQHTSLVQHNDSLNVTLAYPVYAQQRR
Sequence of Erk2 (P28482 2-360 limits assumed): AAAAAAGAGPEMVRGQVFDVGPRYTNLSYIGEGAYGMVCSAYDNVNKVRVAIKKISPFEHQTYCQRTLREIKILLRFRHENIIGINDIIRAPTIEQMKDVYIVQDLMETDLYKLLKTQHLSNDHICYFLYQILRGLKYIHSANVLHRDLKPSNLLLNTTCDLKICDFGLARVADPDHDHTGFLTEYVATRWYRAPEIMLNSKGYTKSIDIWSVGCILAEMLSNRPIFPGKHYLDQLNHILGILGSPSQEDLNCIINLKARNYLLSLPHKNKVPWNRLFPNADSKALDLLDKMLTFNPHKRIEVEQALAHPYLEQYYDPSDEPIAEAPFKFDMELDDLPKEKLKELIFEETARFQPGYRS

| Compound | IC50 (p38alpha) | IC50 (Erk2) | IC50 (PI3Kalpha) | IC50 (Jnk1 + Jnk2) |
| --- | --- | --- | --- | --- |
| CCNC(=O)Nc1ccc2ncc(-c3cccc(C(N)=O)c3)nc2n1 [Compound 155, 3-[6-(3-Ethyl-ureido)-pyrido[2,3-b]-pyrazin-3-yl]-benzamide] | > 100 µM | > 100 µM | 5 µM | 7.8 µM |
| CCNC(=O)Nc1ccc2ncc(-c3ccc(O)cc3Cl)nc2n1 [Compound 170, 1-[3-(2-Chloro-4-hydroxy-phenyl)-pyrido[2,3-b]pyrazin-6-yl]-3-ethyl-urea] | > 31.6 µM | 0.103 µM | 2.4 µM | 1.1 µM |
| COc1cc(-c2cnc3ccc(NC(=O)NCCCCO)nc3n2)ccc1O [Compound 168, 1-(4-Hydroxy-butyl)-3-[3-(4-hydroxy-3-methoxy-phenyl)-pyrido[2,3-b]pyrazin-6-yl]-urea] | > 100 µM | 0.15 µM | 0.612 µM | 2.5 µM |
| CCNC(=O)Nc1ccc2ncc(-c3cccc(O)c3)nc2n1 [Compound 151, 1-Ethyl-3-[3-(3-hydroxy-phenyl)-pyrido[2,3-b]pyrazin-6-yl]-urea] | > 100 µM | 0.104 µM | 1.5 µM | 2.9 µM |
| CCNC(=O)Nc1ccc2ncc(Nc3cc(C(=O)O)cc(C(F)(F)F)c3)nc2n1 [Compound 189, 3-[6-(3-Ethyl-ureido)-pyrido[2,3-b]-pyrazin-3-ylamino]-5-trifluoromethyl-benzoic acid] | > 100 µM | 20.3 µM | 0.237 µM | 6.2 µM |
| CNC(=S)Nc1ccc2ncc(-c3ccc(N)cc3)nc2n1 [Compound 44, 1-[3-(4-Amino-phenyl)-pyrido[2,3-b]pyrazin-6-yl]-3-methyl-thiourea] | > 100 µM | 2.5 µM | 3.8 µM | 1.5 µM |
| CCN(C(C)=O)C(=O)Nc1ccc2ncc(-c3ccccc3)nc2n1 [Compound 46, 1-Acetyl-1-ethyl-3-(3-phenyl-pyrido[2,3-b]pyrazin-6-yl)-urea] | 0.495 µM | 9.5 µM | > 100 µM | > 100 µM |
| CCNC(=O)Nc1ccc2ncc(-c3ccc(N)cc3)nc2n1 [Compound 82, 1-[3-(4-Amino-phenyl)-pyrido[2,3-b]pyrazin-6-yl]-3-ethyl-urea] | > 31.6 µM | 0.944 µM | 6.4 µM | 1.1 µM |
| CCNC(=O)Nc1ccc2ncc(-c3cccc(C(=O)O)c3)nc2n1 [Compound 152, 3-[6-(3-Ethyl-ureido)-pyrido[2,3-b]pyrazin-3-yl]-benzoic acid] | > 100 µM | 1.9 µM | 5.3 µM | 12.1 µM |
| CCNC(=O)Nc1ccc2ncc(-c3ccc(C#N)s3)nc2n1 [Compound 174, 1-[3-(5-Cyano-thiophen-2-yl)-pyrido[2,3-b]pyrazin-6-yl]-3-ethyl-urea] | > 31.6 µM | 4.9 µM | 3 µM | 4.6 µM |
| CCNC(=O)Nc1ccc2ncc(Nc3ccn(C)n3)nc2n1 [Compound 166, 1-Ethyl-3-[3-(1-methyl-1H-pyrazol-3-ylamino)-pyrido[2,3-b]pyrazin-6-yl]-urea] | > 100 µM | 13.7 µM | 1.3 µM | 21.9 µM |
| 1-[3-(3,5-Dichloro-4-hydroxy-phenyl)-pyrido[2,3-b]pyrazin-6-yl]-3-ethyl-urea [Compound 186] | > 100 µM | 0.223 µM | 3.8 µM | 2.5 µM |

More lines, now with the values ahead:

| IC50 (p38alpha) | IC50 (Erk2) | IC50 (PI3Kalpha) | IC50 (Jnk1 + Jnk2) | Compound |
| --- | --- | --- | --- | --- |
| > 100 µM | > 31.6 µM | 0.295 µM | 3.9 µM | CCNC(=O)Nc1ccc2ncc(Nc3ccc(OC)c(Cl)c3)nc2n1 [Compound 177, 1-[3-(3-Chloro-4-methoxy-phenylamino)-pyrido[2,3-b]pyrazin-6-yl]-3-ethyl-urea] |
| > 100 µM | > 100 µM | 0.19 µM | > 31.6 µM | CCNC(=O)Nc1ccc2ncc(Nc3ccc(CC)cc3)nc2n1 [Compound 162, 1-Ethyl-3-[3-(4-ethyl-phenylamino)-pyrido[2,3-b]pyrazin-6-yl]-urea] |
| > 100 µM | > 100 µM | 0.147 µM | 12.6 µM | CCNC(=O)Nc1ccc2ncc(Nc3ccc(Cl)cc3)nc2n1 [Compound 159, 1-[3-(4-Chloroo-phenylamino)-pyrido-[2,3-b]pyrazin-6-yl]-3-ethyl-urea] |
| 1.4 µM | 8 µM | 0.202 µM | 8.1 µM | CCNC(=O)Nc1ccc2ncc(Nc3cnc4ccccc4c3)nc2n1 [Compound 179, 1-Ethyl-3-[3-(chinolin-3-ylamino)-pyrido[2,3-b]pyrazin-6-yl]-urea] |
| > 31.6 µM | 16.6 µM | 0.712 µM | > 100 µM | CCNC(=O)Nc1ccc2ncc(Nc3ccc(OC)c(OC)c3)nc2n1 [Compound 187, 1-[3-(3,4-Dimethoxy-phenylamino)-pyrido[2,3-b]pyrazin-6-yl]-3-ethyl-urea] |
| > 100 µM | > 100 µM | 1.1 µM | > 100 µM | CCNC(=O)Nc1ccc2ncc(Nc3cccnc3)nc2n1 [Compound 161, 1-Ethyl-3-[3-(pyridin-3-ylamino)-pyrido-[2,3-b]pyrazin-6-yl]-urea] |
| > 100 µM | > 100 µM | 2.8 µM | > 31.6 µM | CCNC(=O)Nc1ccc2ncc(Nc3ccc(C)c(O)c3)nc2n1 [Compound 188, 1-Ethyl-3-[3-(3-hydroxy-4-methyl-phenylamino)-pyrido[2,3-b]pyrazin-6-yl]-urea] |
| > 100 µM | > 100 µM | 0.133 µM | 6.3 µM | CCNC(=O)Nc1ccc2ncc(Nc3ccnc(Cl)c3)nc2n1 [Compound 184, 1-[3-(2-Chloro-pyridin-4-ylamino)-pyrido[2,3-b]pyrazin-6-yl]-3-ethyl-urea] |
| > 100 µM | 31.6 µM | 0.422 µM | 1.8 µM | CCNC(=O)Nc1ccc2ncc(Nc3ccc(C#N)cc3)nc2n1 [Compound 192, 1-[3-(4-Cyano-phenylamino)-pyrido-[2,3-b]pyrazin-6-yl]-3-ethyl-urea] |
| > 100 µM | > 100 µM | 0.271 µM | 31 µM | CCNC(=O)Nc1ccc2ncc(Nc3ccc(OC)nc3)nc2n1 [Compound 190, 1-Ethyl-3-[3-(6-methoxy-pyridin-3-ylamino)-pyrido[2,3-b]pyrazin-6-yl]-urea] |
| > 100 µM | 15.7 µM | 1.1 µM | 8.6 µM | CCNC(=O)Nc1ccc2ncc(Nc3cc(OC)cc(OC)c3)nc2n1 [Compound 180, 1-[3-(3,5-Dimethoxy-phenylamino)-pyrido[2,3-b]pyrazin-6-yl]-3-ethyl-urea] |
| > 31.6 µM | > 100 µM | 0.164 µM | 2.3 µM | CCNC(=O)Nc1ccc2ncc(Nc3ccc4ccccc4c3)nc2n1 [Compound 178, 1-Ethyl-3-[3-(naphthalin-2-ylamino)-pyrido[2,3-b]pyrazin-6-yl]-urea] |
| > 31.6 µM | 5.8 µM | 2.9 µM | > 31.6 µM | CCNC(=O)Nc1ccc2ncc(Nc3ccccc3C)nc2n1 [Compound 160, 1-Ethyl-3-(3-o-tolylamino-pyrido[2,3-b]-pyrazin-6-yl)-urea] |
| > 31.6 µM | 0.592 µM | 0.984 µM | 2.8 µM | CCNC(=O)Nc1ccc2ncc(-c3ccc(N)c(OC)c3)nc2n1 [Compound 154, 1-[3-(4-Amino-3-methoxy-phenyl)-pyrido[2,3-b]pyrazin-6-yl]-3-ethyl-urea] |
